Measured values published in patent publication US10870889B2, “Immunoglobulin expression levels as biomarker for proteasome inhibitor response” (Onyx Therapeutics, Inc., priority 2013, dated 2020).
Several values for one entry are separate records, joined by “and”; a condition that tells them apart may be missing. Identical values can stand only once.

Columns and labels:
[1] = test system: high and low Ig-expressing hybridoma cell lines; assay: Drug sensitivity assay on two additional pairs of high and low Ig-expressing hybridoma cell lines; type: cell-based
[2] = test system: multiple myeloma patients; assay: Carfilzomib data analysis: IGH/IGK/IGL and FCGR2B expression (RNA-Seq, FPKQ, CD138+ tumor cells) versus response, cutoffs with % sensitivity/% specificity (ROC) and time-to-progression on single-agent carfilzomib; type: in vivo, human
Method: (§1) Bone marrow samples were aspirated from patients enrolled on Onyx-sponsored Phase 2 trials (NCT00511238, NCT00530816, and NCT00721734) prior to treatment with single-agent carfilzomib. Myeloma tumor cells were isolated by EasySep® immunomagnetic bead-based CD138+ selection (StemCell Technologies), re-suspended in TRIzol (Life Technologies) and frozen at […]. RNA was extracted from these samples with the PureLink RNA kit from Life Technologies (Cat #12183018A), following the recommended protocol for cells in TRIzol suspension, including the optional on-column DNase treatment. Elution volumes ranged from 75 μl-30 μl depending on the total number of cells going into isolation. ERCC control sequences from Life Technologies (ERCC ExFold RNA Spike-In Mix; Cat #4456739) were spiked in to all total RNA samples of sufficient quantity (Nanodrop yield>=150 ng) and quality (Bioanalyzer RIN>=7.0). For 500 ng input libraries, 1 μl of a 1:100 dilution of Mix 1 was added to each total RNA sample and for 150 ng input libraries, 3 μl of a 1:1000 dilution of Mix 1 was added to each total RNA sample. The resulting material was used to construct RNA-Seq libraries with Illumina's TruSeq RNA sample prep kit v2 (Cat #RS-122-2001), with PolyA selection included as the first step. Libraries were sequenced on Illumina's HiSeq 2000 with a target of 70 million fragments using 100×100 bp paired-end sequencing to generate 140 million reads per sample and the resulting raw data was QC-ed with metrics implemented in OmicSoft Array Studio v6.1.
(§2) Raw sequence reads were aligned and expression of genes & isoforms were quantified with a customized pipeline also built in Array Studio v6.1 [Jun]. This pipeline accepts Illumina adapter-stripped, paired-end reads that are trimmed at the […] if a base reaches PHRED quality score Q2 or lower. All reads are aligned to the transcriptome, which consists of the RefGene annotation of human hg19 supplemented with the more rich Ig loci annotations available from ENSEMBL. Reads aligned with mismatches and unaligned reads are subsequently aligned to the entire human genome, searching for novel exon junctions. Reads that remain unaligned are then aligned to the newly identified exon junctions. Alignments to the different references are compared and the highest scoring alignment is retained, or in the event of a tie, the transcriptome alignment is preferentially kept. Finally, all transcriptome alignment locations are translated to genomic coordinates to estimate the expected number of mappings per gene/isoform using the EM algorithm [Dempster]. The EM algorithm assigns reads with multiple alignment locations to an isoform by calculating the conditional probability of a read aligning to a specific isoform, given all other alignments. Weighting the total number of aligned reads with this probability yields posterior expected read counts for each transcript. The EM counts are normalized by the length of the genes/isoforms and number of reads in a library to yield FPKM values (Fragments Per Kilobase per Million reads). Between-sample normalization is achieved by 75th quantile normalization, where each sample is scaled by the median of 75th quantiles from all samples to yield quantile-normalized FPKM or “FPKQ” values.
The FPKQ values corresponding to each “gene” of the three Ig loci, IGH (immunoglobulin heavy locus), IGK (immunoglobulin kappa locus) and IGL (immunoglobulin lambda locus), were summed to produce locus-level expression estimates.
Patients with a best overall response of minimal response (MR) or better (i.e., MR, partial response [PR], very good partial response [VGPR] and complete response [CR]) were grouped into a responder category (N=27; abbreviated as “R”) and patients with a best overall response of stable disease (SD) or worse (i.e., SD and progressive disease [PD]) were grouped into a non-responder category (N=33; abbreviated as “NR”). […]

[3] = test system: Line A (high Ig) hybridoma cells; assay: Hybridoma sensitivity to carfilzomib, CellTiter-Glo Luminescent Cell Viability Assay, Line A; type: cell-based; conditions: 72h treatment, viability vs no treatment control, read-out: inhibitory concentration (IC50) on the cells of Line A
Method: (§3) The two hybridoma cell lines were tested for sensitivity to carfilzomib. Cells of each of Line A (high Ig) and Line B (low Ig) were treated with various doses (40 nM, 30 nM, 20 nM, 15 nM, l0 nM, 7.5 nM, 5 nM, 3.75 nM and 2.5 nM) of carfilzomib for 72h. The viability of the cells were then measured by CellTiter-Glo® Luminescent Cell Viability Assay (Cat. No. G7570; Promega Corporation) and compared to no treatment control.

IG expression = IG expression in tumor sample of one patient at screening and on Cycle 1 Day 2 of single-agent carfilzomib (RNA-Seq); type: in vivo, human
Method: as §1, §2
To understand, how IG expression changes during treatment with proteasome inhibitors, the data was examined from one patient for which both a screening tumor sample and a sample collected on Cycle 1 Day 2 (C1D2) of treatment with single-agent carfilzomib were available.

[4] = test system: Line B (low Ig) hybridoma cells; assay: Hybridoma sensitivity to carfilzomib, CellTiter-Glo Luminescent Cell Viability Assay, Line B; type: cell-based; conditions: 72h treatment, viability vs no treatment control
Method: as §3

[5] = test system: multiple myeloma patients; assay: Bortezomib data analysis: combined Ig expression score (Affymetrix microarray, CD138+ tumor cells, GSE9782) versus response and time-to-progression on single-agent bortezomib or dexamethasone; type: in vivo, human; conditions: bortezomib-treated patients
Source text: Publicly available RNA microarray data in tab-delimited text format were downloaded from the Gene Expression Omnibus (GEO ID: GSE9782).
A list of 55 probes from this Affymetrix microarray platform that map to genes encoding immunoglobulin (Ig)-related proteins was obtained from Rody et al. Addition File 5. This example tested for an association between normalized intensity of each of these 55 probes and bortezomib response, which was labeled as “PGx_Responder=R” in the dataset. […] The finding of 13 significant associations is far more than expected by chance (Binomial P-value=2×10^−6). […] It is not surprising that many probes are not associated, given that some map to rarer, patient-specific portions of the Ig loci and that others map to regions that are unusually highly-expressed, and therefore not well-measured with microarray technology (i.e., their fluorescence is likely to be saturated).
Patients were classified as achieving complete response (CR), partial response (PR), minimal response (MR), no change (NC), or progressive disease (PD), using European Group for Bone Marrow Transplantation criteria. In brief, PD requires 25% increase in paraprotein, whereas MR, PR, and CR require at least 25%, 50%, and 100% decreases, respectively.
Various mean IG expression cutoffs were considered to maximize the clinical utility of a potential diagnostic test. Ultimately, a cutoff of 0.29 (defining “IG-High”>=0.29 and “IG-Low”<0.29) was chosen, predicting response in the training data with 71% sensitivity and 62% specificity. This same cutoff was then applied to time-to-progression (TTP) data for these patients, finding that IG-High patients in this cohort have a 1.4-fold longer median TTP than IG-Low patients (8.4 months vs. 6.0 months; log-rank P-value=0.025).

[6] = FCGR2B cutoffs 75 and 5 combined with IGH-High cutoff 140,000
[7] = Screening vs C1D2, one patient, single-agent carfilzomib
[8] = one patient, tumor sample on Cycle 1 Day 2 of single-agent carfilzomib

## CC(C)C[C@H](NC(=O)[C@H](CCc1ccccc1)NC(=O)CN1CCOCC1)C(=O)N[C@@H](Cc1ccccc1)C(=O)N[C@@H](CC(C)C)C(=O)[C@@]1(C)CO1 [carfilzomib]
[1]
  sensitivity of high Ig-expressing hybridoma lines relative to low Ig-expressing lines: greater sensitivity
[2]; [6]
  median TTP, IGH+FCGR2B-Negative patients: 1.2 months
  median TTP, IGH+FCGR2B-Positive patients: 8.9 months
[2]; IGH FPKQ <160,000
  median TTP (time to progression), IGH-Low patients: 1.4 months and 1.3 months
[2]; IGH FPKQ >=160,000
  median TTP (time to progression), IGH-High patients: 7.6 months and 7.3 months
[2]; log-rank P-value=0.003
  fold longer median TTP, IGH-High vs IGH-Low patients: 6 fold and 5.4 fold
[2]; log-rank P-value=3×10−5
  fold longer median TTP, IGH+FCGR2B-Positive vs IGH+FCGR2B-Negative patients: 7.3 fold
[3]
  IC50: 10.4 nM
IG expression; [7]
  Fold-Change of expression, gene ICKV3-20: 4.11
  Fold-Change of expression, gene IGHA1: 3.37
  Fold-Change of expression, gene IGHV3-30: 3.63
  Fold-Change of expression, gene IGHV3-33: 3.77
  Fold-Change of expression, gene IGKC: 3.88
IG expression; one patient, screening vs C1D2
  IG expression lower in the sample collected one day after the first dose: 3- to 4 fold
IG expression; [8]
  Expression C1D2, gene ICKV3-20: 9.6E+04
  Expression C1D2, gene IGHA1: 1.3E+05
  Expression C1D2, gene IGHV3-30: 2.4E+04
  Expression C1D2, gene IGHV3-33: 2.1E+04
  Expression C1D2, gene IGKC: 1.4E+05
[4]
  IC50: 24.3 nM

## CC(C)C[C@H](NC(=O)[C@H](Cc1ccccc1)NC(=O)c1cnccn1)B(O)O [bortezomib]
[5]; cutoff 0.29, log-rank P-value=0.025
  fold longer median TTP, IG-High vs IG-Low patients: 1.4 fold
[5]; mean IG expression score <0.29
  median TTP (time-to-progression), IG-Low patients: 6.0 months
[5]; mean IG expression score >=0.29
  median TTP (time-to-progression), IG-High patients: 8.4 months
